Experimental data: ChEMBL document CHEMBL1150213, “Protein-tyrosine kinase inhibition: mechanism-based discovery of antitumor agents” (J Nat Prod, 1992)
Values after ≈ are worked out from the molar mass of the structure shown.

How the values were obtained:
[1] = target: Tyrosine-protein kinase transforming protein Fps (Fujinami sarcoma virus, UniProt P00530); assay: Inhibition of Fujinami sarcoma virus pp130fps
Insulin receptor = Insulin receptor (Homo sapiens, UniProt P06213); assay: Inhibition of insulin receptor
MOLT-4 = assay: Cytotoxicity against human MOLT4 cells; assay type: functional, cell-based
SR = assay: Cytotoxicity against human SR cells; assay type: functional, cell-based
K562 = assay: Cytotoxicity against human K562 cells; assay type: functional, cell-based
HL-60(TB) = assay: Cytotoxicity against human HL-60(TB) cells; assay type: functional, cell-based
CCRF-CEM = assay: Cytotoxicity against human CCRF-CEM cells; assay type: functional, cell-based
RPMI-8226 = assay: Cytotoxicity against human RPMI8226 cells; assay type: functional, cell-based
[2] = target: Epidermal growth factor receptor (Homo sapiens, UniProt P00533)
A-431 = assay: Cytotoxicity against human A431 cells; assay type: functional
L1210 [3] = assay: Cytotoxicity against mouse L1210 cells; assay type: functional
L1210 [4] = assay: Iv vivo cytotoxicity against mouse L1210 cells relative to control in presence of foroxymithine; assay type: functional
[5] = Cytotoxicity against Rous sarcoma virus-infected rat kidney cells; assay type: functional
SF-295 = assay: Cytotoxicity against human SF295 cells; assay type: functional
XF498 = assay: Cytotoxicity against human XF498 cells; assay type: functional
HCC 2998 = assay: Cytotoxicity against human HCC2998 cells; assay type: functional
SF-268 = assay: Cytotoxicity against human SF268 cells; assay type: functional
HT-29 = assay: Cytotoxicity against human HT-29 cells; assay type: functional
SNB-78 = assay: Cytotoxicity against human SNB78 cells; assay type: functional
KM-20L2 = assay: Cytotoxicity against human KM20L2 cells; assay type: functional
U-251 = assay: Cytotoxicity against human U251 cells; assay type: functional
A498 = assay: Cytotoxicity against human A498 cells; assay type: functional
HCT-116 = assay: Cytotoxicity against human HCT116 cells; assay type: functional
KM12 = assay: Cytotoxicity against human KM12 cells; assay type: functional
SK-MEL-2 = assay: Cytotoxicity against human SK-MEL-2 cells; assay type: functional
NCI-H226 = assay: Cytotoxicity against human NCI-H226 cells; assay type: functional
RXF 393 = assay: Cytotoxicity against human RXF393 cells; assay type: functional
SK-MEL-5 = assay: Cytotoxicity against human SK-MEL-5 cells; assay type: functional
A549 = assay: Cytotoxicity against human A549 cells; assay type: functional
HOP-18 = assay: Cytotoxicity against human HOP18 cells; assay type: functional
NCI-H522 = assay: Cytotoxicity against human NCI-H522 cells; assay type: functional
SW-620 = assay: Cytotoxicity against human SW620 cells; assay type: functional
[6] = Cytotoxicity against human RXF631 cells; assay type: functional
TK-10 = assay: Cytotoxicity against human TK10 cells; assay type: functional
DMS-273 = assay: Cytotoxicity against human DMS273 cells; assay type: functional
SK-OV-3 = assay: Cytotoxicity against human SKOV3 cells; assay type: functional
COLO 205 = assay: Cytotoxicity against human COLO205 cells; assay type: functional
[7] = Cytotoxicity against human LXFL 529L cells; assay type: functional
OVCAR-4 = assay: Cytotoxicity against human OVCAR4 cells; assay type: functional
DMS-114 = assay: Cytotoxicity against human DMS114 cells; assay type: functional
DLD-1 = assay: Cytotoxicity against human DLD1 cells; assay type: functional
SNB-75 = assay: Cytotoxicity against human SNB75 cells; assay type: functional
Malme-3M = assay: Cytotoxicity against human MALME-3M cells; assay type: functional
SNB-19 = assay: Cytotoxicity against human SNB19 cells; assay type: functional
NCI-H23 = assay: cells; conditions: Homo sapiens
Description: Cytotoxicity against human NCI-H23 cells

[8] = target: Tyrosine-protein kinase Lck (Homo sapiens, UniProt P06239)
[9] = Cytotoxicity against human 786-O cells; assay type: functional
UACC-257 = assay: Cytotoxicity against human UACC257 cells; assay type: functional
SN12C = assay: Cytotoxicity against human SN12C cells; assay type: functional
NCI-H322M = assay: Cytotoxicity against human NCI-H322M cells; assay type: functional
CAKI-1 = assay: Cytotoxicity against human Caki1 cells; assay type: functional
ACHN = assay: Cytotoxicity against human ACHN cells; assay type: functional
SK-MEL-28 = assay: Cytotoxicity against human SK-MEL-28 cells; assay type: functional
LOX IMVI = assay: Cytotoxicity against human LOXIMVI cells; assay type: functional
HOP-92 = assay: Cytotoxicity against human HOP92 cells; assay type: functional
HCT-15 = assay: Cytotoxicity against human HCT15 cells; assay type: functional
NCI-H460 = assay: Cytotoxicity against human NCI-H460 cells; assay type: functional
OVCAR-5 = assay: Cytotoxicity against human OVCAR5 cells; assay type: functional
HOP-62 = assay: Cytotoxicity against human HOP62 cells; assay type: functional
M14 = assay: Cytotoxicity against human M14 cells; assay type: functional
[10] = target: Proto-oncogene tyrosine-protein kinase Src (Homo sapiens, UniProt P12931); assay: Inhibition of p60 src
NRK = assay: Growth inhibition of Rous sarcoma virus-transformed rat NRK cells; assay type: cell-based
[11] = read-out: Log10GI50 (converted)
[12] = read-out: Log10LC50 (converted)

Proto-oncogene tyrosine-protein kinase Src, sequence (P12931 2-536 limits assumed): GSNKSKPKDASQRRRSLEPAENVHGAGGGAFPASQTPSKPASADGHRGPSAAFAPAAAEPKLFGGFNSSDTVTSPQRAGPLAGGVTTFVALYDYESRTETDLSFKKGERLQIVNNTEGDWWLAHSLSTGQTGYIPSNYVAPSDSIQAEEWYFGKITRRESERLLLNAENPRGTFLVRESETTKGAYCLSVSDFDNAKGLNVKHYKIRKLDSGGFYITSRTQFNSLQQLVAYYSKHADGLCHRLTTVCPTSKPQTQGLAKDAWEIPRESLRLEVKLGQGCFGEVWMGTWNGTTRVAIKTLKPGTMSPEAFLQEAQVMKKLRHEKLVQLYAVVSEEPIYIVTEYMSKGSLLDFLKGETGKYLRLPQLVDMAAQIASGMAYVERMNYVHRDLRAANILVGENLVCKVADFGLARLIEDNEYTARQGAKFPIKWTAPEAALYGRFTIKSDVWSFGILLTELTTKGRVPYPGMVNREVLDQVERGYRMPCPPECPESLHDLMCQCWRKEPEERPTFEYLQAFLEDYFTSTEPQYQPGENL
Epidermal growth factor receptor, sequence (P00533 whole entry): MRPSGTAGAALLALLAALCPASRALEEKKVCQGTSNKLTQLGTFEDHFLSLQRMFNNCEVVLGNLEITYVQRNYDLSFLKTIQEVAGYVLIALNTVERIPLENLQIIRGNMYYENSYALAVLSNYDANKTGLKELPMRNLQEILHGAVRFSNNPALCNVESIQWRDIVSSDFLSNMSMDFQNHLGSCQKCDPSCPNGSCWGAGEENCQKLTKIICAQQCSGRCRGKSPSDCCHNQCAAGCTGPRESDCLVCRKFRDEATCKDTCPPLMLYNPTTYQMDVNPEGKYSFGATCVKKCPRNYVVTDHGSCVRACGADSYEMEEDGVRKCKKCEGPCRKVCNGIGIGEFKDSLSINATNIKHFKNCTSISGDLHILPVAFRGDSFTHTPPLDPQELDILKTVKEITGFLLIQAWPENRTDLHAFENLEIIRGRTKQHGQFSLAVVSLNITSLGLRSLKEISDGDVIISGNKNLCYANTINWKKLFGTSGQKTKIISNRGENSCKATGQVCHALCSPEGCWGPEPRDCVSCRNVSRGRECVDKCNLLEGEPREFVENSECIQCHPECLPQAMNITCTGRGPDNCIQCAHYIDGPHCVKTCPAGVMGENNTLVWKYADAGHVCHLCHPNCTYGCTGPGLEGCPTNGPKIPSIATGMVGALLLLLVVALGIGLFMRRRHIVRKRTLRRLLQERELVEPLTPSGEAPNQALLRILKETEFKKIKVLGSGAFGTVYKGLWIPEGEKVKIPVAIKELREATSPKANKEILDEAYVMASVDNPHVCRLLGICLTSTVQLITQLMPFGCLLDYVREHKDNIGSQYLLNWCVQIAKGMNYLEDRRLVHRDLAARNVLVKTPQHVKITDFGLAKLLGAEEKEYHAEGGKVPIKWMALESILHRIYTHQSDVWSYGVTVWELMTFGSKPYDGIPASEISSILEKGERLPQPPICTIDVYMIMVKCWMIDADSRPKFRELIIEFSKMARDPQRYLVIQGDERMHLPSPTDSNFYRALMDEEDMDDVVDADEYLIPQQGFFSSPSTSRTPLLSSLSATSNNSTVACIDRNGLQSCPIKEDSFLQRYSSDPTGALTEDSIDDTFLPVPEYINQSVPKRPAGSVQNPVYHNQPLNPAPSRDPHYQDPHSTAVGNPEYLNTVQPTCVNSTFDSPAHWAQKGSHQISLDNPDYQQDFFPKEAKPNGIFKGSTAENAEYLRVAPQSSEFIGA
Tyrosine-protein kinase transforming protein Fps, sequence (P00530 whole entry): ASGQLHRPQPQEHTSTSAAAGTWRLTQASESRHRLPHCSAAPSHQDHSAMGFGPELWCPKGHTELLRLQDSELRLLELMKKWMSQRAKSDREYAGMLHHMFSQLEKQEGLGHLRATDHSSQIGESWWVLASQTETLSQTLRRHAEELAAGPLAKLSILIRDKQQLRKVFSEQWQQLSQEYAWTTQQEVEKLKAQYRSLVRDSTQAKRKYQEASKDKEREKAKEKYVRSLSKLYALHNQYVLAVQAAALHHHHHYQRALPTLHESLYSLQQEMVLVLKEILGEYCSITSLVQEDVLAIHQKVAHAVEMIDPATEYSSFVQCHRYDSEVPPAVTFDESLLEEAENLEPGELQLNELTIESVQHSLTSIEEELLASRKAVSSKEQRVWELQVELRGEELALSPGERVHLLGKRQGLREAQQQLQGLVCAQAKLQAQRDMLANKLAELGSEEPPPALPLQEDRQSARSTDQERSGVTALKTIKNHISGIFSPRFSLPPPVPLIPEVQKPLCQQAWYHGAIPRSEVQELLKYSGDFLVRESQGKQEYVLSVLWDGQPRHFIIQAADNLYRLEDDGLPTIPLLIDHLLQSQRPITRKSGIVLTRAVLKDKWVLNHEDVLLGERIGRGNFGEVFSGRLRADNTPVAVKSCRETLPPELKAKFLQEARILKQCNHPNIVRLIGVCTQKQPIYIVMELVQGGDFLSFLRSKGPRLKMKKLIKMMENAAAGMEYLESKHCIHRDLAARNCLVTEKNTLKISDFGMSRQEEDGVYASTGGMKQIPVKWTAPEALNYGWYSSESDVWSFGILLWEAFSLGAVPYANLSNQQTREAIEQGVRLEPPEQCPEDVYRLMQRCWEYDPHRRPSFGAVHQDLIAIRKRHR
Tyrosine-protein kinase Lck, sequence (P06239 whole entry): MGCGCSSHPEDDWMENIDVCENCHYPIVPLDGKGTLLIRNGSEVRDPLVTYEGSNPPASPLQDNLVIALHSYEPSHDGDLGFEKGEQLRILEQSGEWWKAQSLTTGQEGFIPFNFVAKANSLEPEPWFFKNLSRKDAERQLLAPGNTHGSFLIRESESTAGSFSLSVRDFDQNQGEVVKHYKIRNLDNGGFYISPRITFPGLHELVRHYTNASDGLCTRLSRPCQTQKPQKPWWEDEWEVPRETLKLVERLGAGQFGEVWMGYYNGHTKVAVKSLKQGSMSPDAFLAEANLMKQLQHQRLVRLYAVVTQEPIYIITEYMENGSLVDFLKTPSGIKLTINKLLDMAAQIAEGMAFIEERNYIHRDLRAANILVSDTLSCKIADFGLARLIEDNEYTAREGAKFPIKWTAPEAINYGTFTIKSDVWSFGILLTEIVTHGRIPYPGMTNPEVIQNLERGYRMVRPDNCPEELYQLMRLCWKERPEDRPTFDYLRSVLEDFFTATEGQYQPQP
Insulin receptor, sequence (P06213 28-758 limits assumed): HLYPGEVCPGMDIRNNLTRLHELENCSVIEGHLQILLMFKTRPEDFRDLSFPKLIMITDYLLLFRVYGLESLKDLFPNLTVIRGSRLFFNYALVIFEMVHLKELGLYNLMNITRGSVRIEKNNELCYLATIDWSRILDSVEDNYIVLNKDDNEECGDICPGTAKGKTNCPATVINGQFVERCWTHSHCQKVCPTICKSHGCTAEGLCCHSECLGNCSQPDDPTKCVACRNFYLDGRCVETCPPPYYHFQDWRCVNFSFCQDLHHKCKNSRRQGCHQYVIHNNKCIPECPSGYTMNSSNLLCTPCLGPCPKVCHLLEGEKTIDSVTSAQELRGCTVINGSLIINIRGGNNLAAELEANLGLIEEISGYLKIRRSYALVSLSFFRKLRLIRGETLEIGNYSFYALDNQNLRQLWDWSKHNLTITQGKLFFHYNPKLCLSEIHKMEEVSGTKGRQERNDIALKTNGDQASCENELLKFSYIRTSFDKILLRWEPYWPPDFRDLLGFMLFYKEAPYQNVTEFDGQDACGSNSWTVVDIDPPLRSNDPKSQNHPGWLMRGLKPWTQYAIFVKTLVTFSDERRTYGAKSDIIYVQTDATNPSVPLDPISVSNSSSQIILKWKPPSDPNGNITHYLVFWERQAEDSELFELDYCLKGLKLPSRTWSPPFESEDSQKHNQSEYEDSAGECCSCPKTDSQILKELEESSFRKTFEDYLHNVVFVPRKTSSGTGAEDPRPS
Insulin receptor, sequence (P06213 763-1382 limits assumed): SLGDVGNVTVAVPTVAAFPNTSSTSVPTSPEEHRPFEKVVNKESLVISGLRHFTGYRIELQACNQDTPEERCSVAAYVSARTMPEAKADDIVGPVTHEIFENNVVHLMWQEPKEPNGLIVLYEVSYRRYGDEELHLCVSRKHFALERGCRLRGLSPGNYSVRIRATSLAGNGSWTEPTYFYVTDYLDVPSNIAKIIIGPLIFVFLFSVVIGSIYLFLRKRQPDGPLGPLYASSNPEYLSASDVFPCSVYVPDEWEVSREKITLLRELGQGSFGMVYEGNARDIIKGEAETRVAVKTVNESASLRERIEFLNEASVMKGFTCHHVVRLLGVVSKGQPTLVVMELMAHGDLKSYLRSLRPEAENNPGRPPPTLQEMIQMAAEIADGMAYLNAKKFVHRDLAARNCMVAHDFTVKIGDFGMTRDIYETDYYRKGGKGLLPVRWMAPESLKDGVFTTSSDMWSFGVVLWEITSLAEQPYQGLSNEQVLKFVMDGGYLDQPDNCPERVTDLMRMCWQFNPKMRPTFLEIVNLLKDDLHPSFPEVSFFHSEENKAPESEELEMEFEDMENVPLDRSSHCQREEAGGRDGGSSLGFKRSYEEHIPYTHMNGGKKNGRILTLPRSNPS

Structure (SMILES): O=c1c(O)c(-c2cc(O)c(O)c(O)c2)oc2cc(O)cc(O)c12 [MYRICETIN]
- Ki [1]: 1.8 µM
- Ki (Insulin receptor): 2.6 µM

Structure (SMILES): CO[C@H]1[C@@H](OC)C[C@H](C)[C@@H](OC)C2=CC(=O)C=C(NC(=O)/C(C)=C/C=C/[C@H](OC)[C@@H](OC(N)=O)/C(C)=C/[C@@H]1C)C2=O [HERBIMYCIN]
- IC50 (MOLT-4): > 1 µM
- IC50 (SR): > 1 µM
- IC50 (K562): 0.095 µM
- IC50 (HL-60(TB)): > 1 µM
- IC50 (CCRF-CEM): > 1 µM
- IC50 (RPMI-8226): > 1 µM

Structure (SMILES): O=CN/C=C/c1cc(O)ccc1O [ERBSTATIN]
- IC50 [2]: 3.07 µM
- GI50 (A-431): 3 µg/mL (≈ 16.7 µM)
- GI50 (L1210 [3]): 3 µg/mL (≈ 16.7 µM)
- T/C (L1210 [4]): 155%
- GI50 [5]: 3 µg/mL (≈ 16.7 µM)

Structure (SMILES): Cc1cc(O)c2c(c1)C(=O)c1cc(O)cc(O)c1C2=O [EMODIN]
- GI50 (MOLT-4; [11]): 32.4 µM
- CC50 (MOLT-4; [12]): > 100 µM
- GI50 (SF-295; [11]): 28.2 µM
- CC50 (SF-295; [12]): > 100 µM
- GI50 (SR; [11]): 23.4 µM
- CC50 (SR; [12]): > 100 µM
- GI50 (HL-60(TB); [11]): 26.9 µM
- CC50 (HL-60(TB); [12]): > 100 µM
- GI50 (XF498; [11]): 26.3 µM
- CC50 (XF498; [12]): > 100 µM
- GI50 (HCC 2998; [11]): 32.4 µM
- CC50 (HCC 2998; [12]): > 100 µM
- GI50 (SF-268; [11]): 25.7 µM
- CC50 (SF-268; [12]): > 100 µM
- GI50 (HT-29; [11]): 31.6 µM
- CC50 (HT-29; [12]): > 100 µM
- GI50 (SNB-78; [11]): 49 µM
- CC50 (SNB-78; [12]): 100 µM
- GI50 (KM-20L2; [11]): 40.7 µM
- CC50 (KM-20L2; [12]): > 100 µM
- GI50 (U-251; [11]): 27.5 µM
- CC50 (U-251; [12]): > 100 µM
- GI50 (A498; [11]): 16.6 µM
- CC50 (A498; [12]): > 100 µM
- GI50 (HCT-116; [11]): 36.3 µM
- CC50 (HCT-116; [12]): > 100 µM
- GI50 (KM12; [11]): 26.3 µM
- CC50 (KM12; [12]): > 100 µM
- GI50 (SK-MEL-2; [11]): 20.4 µM
- CC50 (SK-MEL-2; [12]): > 100 µM
- GI50 (NCI-H226; [11]): 33.1 µM
- CC50 (NCI-H226; [12]): > 100 µM
- GI50 (RXF 393; [11]): 38.9 µM
- CC50 (RXF 393; [12]): > 100 µM
- GI50 (SK-MEL-5; [11]): 2.63 µM
- CC50 (SK-MEL-5; [12]): 51.3 µM
- GI50 (A549; [11]): 26.9 µM
- CC50 (A549; [12]): > 100 µM
- GI50 (HOP-18; [11]): 3.98 µM
- CC50 (HOP-18; [12]): > 100 µM
- GI50 (NCI-H522; [11]): 14.5 µM
- CC50 (NCI-H522; [12]): > 100 µM
- GI50 (SW-620; [11]): 23.4 µM
- CC50 (SW-620; [12]): > 100 µM
- GI50 ([6]; RXF 631, read-out: Log10GI50 (converted)): 22.4 µM
- CC50 ([6]; RXF 631, read-out: Log10LC50 (converted)): > 100 µM
- GI50 (TK-10; [11]): 23.4 µM
- CC50 (TK-10; [12]): 97.7 µM
- GI50 (DMS-273; [11]): 20 µM
- CC50 (DMS-273; [12]): > 100 µM
- GI50 (SK-OV-3; [11]): 23.4 µM
- CC50 (SK-OV-3; [12]): > 100 µM
- GI50 (COLO 205; [11]): 17.8 µM
- CC50 (COLO 205; [12]): 100 µM
- GI50 (CCRF-CEM; [11]): 38 µM
- CC50 (CCRF-CEM; [12]): > 100 µM
- GI50 [7, 11]: 24.5 µM
- CC50 [7, 12]: > 100 µM
- GI50 (OVCAR-4; [11]): 30.2 µM
- CC50 (OVCAR-4; [12]): > 100 µM
- GI50 (DMS-114; [11]): 40.7 µM
- CC50 (DMS-114; [12]): > 100 µM
- GI50 (DLD-1; [11]): 23.4 µM
- CC50 (DLD-1; [12]): > 100 µM
- GI50 (SNB-75; [11]): 25.7 µM
- CC50 (SNB-75; [12]): > 100 µM
- GI50 (Malme-3M; [11]): 11.7 µM
- CC50 (Malme-3M; [12]): > 100 µM
- GI50 (SNB-19; [11]): 30.2 µM
- CC50 (SNB-19; [12]): > 100 µM
- GI50 (NCI-H23; NCI-H23, read-out: Log10GI50 (converted)): 14.5 µM
- CC50 (NCI-H23; NCI-H23, read-out: Log10LC50 (converted)): > 100 µM
- IC50 [8]: 18.5 µM
- GI50 ([9]; 786-0, read-out: Log10GI50 (converted)): 17.4 µM
- CC50 ([9]; 786-0, read-out: Log10LC50 (converted)): > 100 µM
- GI50 (UACC-257; [11]): 28.2 µM
- CC50 (UACC-257; [12]): > 100 µM
- GI50 (SN12C; [11]): 67.6 µM
- CC50 (SN12C; [12]): > 100 µM
- GI50 (NCI-H322M; [11]): 35.5 µM
- CC50 (NCI-H322M; [12]): > 100 µM
- GI50 (CAKI-1; [11]): 45.7 µM
- CC50 (CAKI-1; [12]): > 100 µM
- GI50 (RPMI-8226; [11]): 24.5 µM
- CC50 (RPMI-8226; [12]): > 100 µM
- GI50 (ACHN; [11]): 19.1 µM
- CC50 (ACHN; [12]): > 100 µM
- GI50 (SK-MEL-28; [11]): 36.3 µM
- CC50 (SK-MEL-28; [12]): > 100 µM
- GI50 (LOX IMVI; [11]): 17 µM
- CC50 (LOX IMVI; [12]): > 100 µM
- GI50 (HOP-92; [11]): 11.5 µM
- CC50 (HOP-92; [12]): > 100 µM
- GI50 (HCT-15; [11]): 26.9 µM
- CC50 (HCT-15; [12]): > 100 µM
- GI50 (NCI-H460; [11]): 20 µM
- CC50 (NCI-H460; [12]): > 100 µM
- GI50 (OVCAR-5; [11]): 38 µM
- CC50 (OVCAR-5; [12]): > 100 µM
- GI50 (HOP-62; [11]): 8.13 µM
- CC50 (HOP-62; [12]): > 100 µM
- GI50 (M14; [11]): 25.1 µM
- CC50 (M14; [12]): > 100 µM

Structure (SMILES): CC(C)[C@H](NC(=O)[C@H](CCCN=C(N)N)NC(=O)[C@@H](N)CC(=O)O)C(=O)N[C@@H](Cc1ccc(O)cc1)C(=O)N[C@H](C(=O)N[C@@H](Cc1cnc[nH]1)C(=O)N1CCC[C@H]1C(=O)N[C@@H](Cc1ccccc1)C(=O)O)C(C)C [[Val5] - ANGIOTENSIN II]
- Ki [10]: 700 µM

Structure (SMILES): O=c1c(-c2ccc(O)c(O)c2)coc2cc(O)cc(O)c12 [OROBOL]
- IC50 (NRK): 4 µg/mL (≈ 14 µM)
